Assay results taken from the NIST ThermoML archive (doi:10.1021/je300938w).

How the values were obtained:
[1] = wn = mass fraction of the nth substance listed; details: 101 kPa, Liquid; for viscosity: Concentric cylinders viscometry; for mass density: Vibrating tube method
[2] = refractive index (Na D-line) (dimensionless); wn = mass fraction of the nth substance listed; details: 101 kPa, Liquid, Standard Abbe refractometry

CC(O)CN (stereo not given) [1-amino-2-propanol] + O
Details	mass density, [1] [kg/m3]	refractive index, [2]	viscosity, [1] [mPa·s]
298.15 K, w1 = 0.05	998.574	1.33891	1.088
298.15 K, w1 = 0.1	999.182	1.34586	1.296
298.15 K, w1 = 0.15	999.932	1.35281	1.569
298.15 K, w1 = 0.2	1001.03	1.35955	1.944
298.15 K, w1 = 0.25	1002.46	1.36649	2.444
303.15 K, w1 = 0.05	997.087	1.33825	0.9733
303.15 K, w1 = 0.1	997.57	1.34506	1.148
303.15 K, w1 = 0.15	998.142	1.35201	1.372
303.15 K, w1 = 0.2	999.018	1.35875	1.678
303.15 K, w1 = 0.25	1000.2	1.3656	2.083
308.15 K, w1 = 0.05	995.386	1.33749	0.8761
308.15 K, w1 = 0.1	995.747	1.34432	1.027
308.15 K, w1 = 0.15	996.159	1.35092	1.215
308.15 K, w1 = 0.2	996.833	1.35767	1.468
308.15 K, w1 = 0.25	997.78	1.36461	1.799
313.15 K, w1 = 0.05	993.483	1.33668	0.7937
313.15 K, w1 = 0.1	993.738	1.34343	0.9275
313.15 K, w1 = 0.15	994.005	1.35012	1.084
313.15 K, w1 = 0.2	994.489	1.35672	1.295
313.15 K, w1 = 0.25	995.218	1.36347	1.574
318.15 K, w1 = 0.05	991.399	1.33578	0.7225
318.15 K, w1 = 0.1	991.552	1.34259	0.8362
318.15 K, w1 = 0.15	991.681	1.34908	0.9756
318.15 K, w1 = 0.2	991.989	1.35573	1.155
318.15 K, w1 = 0.25	992.514	1.36228	1.384
323.15 K, w1 = 0.05	989.143	1.33483	0.6617
323.15 K, w1 = 0.1	989.197	1.34154	0.7617
323.15 K, w1 = 0.15	989.197	1.34799	0.8864
323.15 K, w1 = 0.2	989.338	1.35454	1.039
323.15 K, w1 = 0.25	989.679	1.36109	1.231
328.15 K, w1 = 0.05	986.722	1.33384	0.6112
328.15 K, w1 = 0.1	986.682	1.3405	0.6988
328.15 K, w1 = 0.15	986.564	1.34705	0.8113
328.15 K, w1 = 0.2	986.546	1.3533	0.943
328.15 K, w1 = 0.25	986.711	1.35985	1.102
333.15 K, w1 = 0.05	984.143	1.3328	0.5696
333.15 K, w1 = 0.1	984.015	1.33936	0.647
333.15 K, w1 = 0.15	983.779	1.34581	0.75
333.15 K, w1 = 0.2	983.615	1.35211	0.8659
333.15 K, w1 = 0.25	983.616	1.35861	0.9934
338.15 K, w1 = 0.05	981.41	1.33173	0.5381
338.15 K, w1 = 0.1	981.198	1.33832	0.6053
338.15 K, w1 = 0.15	980.853	1.34462	0.6919
338.15 K, w1 = 0.2	980.549	1.35092	0.8
338.15 K, w1 = 0.25	980.398	1.35753	0.9015
343.15 K, w1 = 0.05	978.537	1.33057	0.5152
343.15 K, w1 = 0.1	978.237	1.33713	0.5701
343.15 K, w1 = 0.15	977.785	1.34343	0.6478
343.15 K, w1 = 0.2	977.354	1.34968	0.7408
343.15 K, w1 = 0.25	977.059	1.35614	0.8266

CC(O)CNCC(C)O (stereo not given) [N-(2-hydroxypropyl)-2-hydroxy-1-propanamine] + O
Details	mass density, [1] [kg/m3]	refractive index, [2]	viscosity, [1] [mPa·s]
298.15 K, w1 = 0.05	1000.6	1.34052	1.117
298.15 K, w1 = 0.1	1003.53	1.34766	1.394
298.15 K, w1 = 0.15	1006.99	1.35486	1.814
298.15 K, w1 = 0.2	1010.4	1.3621	2.288
298.15 K, w1 = 0.25	1014.1	1.36925	3.026
303.15 K, w1 = 0.05	999.133	1.33988	0.9968
303.15 K, w1 = 0.1	1001.97	1.34693	1.228
303.15 K, w1 = 0.15	1005.27	1.35421	1.569
303.15 K, w1 = 0.2	1008.5	1.3613	1.952
303.15 K, w1 = 0.25	1011.98	1.36822	2.539
308.15 K, w1 = 0.05	997.454	1.33919	0.8984
308.15 K, w1 = 0.1	1000.19	1.34623	1.093
308.15 K, w1 = 0.15	1003.35	1.35332	1.38
308.15 K, w1 = 0.2	1006.41	1.36036	1.695
308.15 K, w1 = 0.25	1009.69	1.36736	2.167
313.15 K, w1 = 0.05	995.576	1.33844	0.8189
313.15 K, w1 = 0.1	998.214	1.34533	0.9814
313.15 K, w1 = 0.15	1001.24	1.35237	1.224
313.15 K, w1 = 0.2	1004.14	1.35947	1.485
313.15 K, w1 = 0.25	1007.23	1.36641	1.871
318.15 K, w1 = 0.05	993.508	1.33755	0.7442
318.15 K, w1 = 0.1	996.055	1.3445	0.8856
318.15 K, w1 = 0.15	998.951	1.35149	1.095
318.15 K, w1 = 0.2	1001.71	1.35838	1.313
318.15 K, w1 = 0.25	1004.62	1.36537	1.633
323.15 K, w1 = 0.05	991.263	1.33675	0.6884
323.15 K, w1 = 0.1	993.722	1.34355	0.8047
323.15 K, w1 = 0.15	996.497	1.35044	0.9924
323.15 K, w1 = 0.2	999.106	1.35739	1.171
323.15 K, w1 = 0.25	1001.86	1.36423	1.438
328.15 K, w1 = 0.05	988.852	1.33566	0.6407
328.15 K, w1 = 0.1	991.224	1.34256	0.7357
328.15 K, w1 = 0.15	993.882	1.3494	0.9053
328.15 K, w1 = 0.2	996.358	1.35615	1.052
328.15 K, w1 = 0.25	998.953	1.36294	1.278
333.15 K, w1 = 0.05	986.277	1.33467	0.5833
333.15 K, w1 = 0.1	988.56	1.34147	0.6793
333.15 K, w1 = 0.15	991.114	1.34831	0.8324
333.15 K, w1 = 0.2	993.463	1.35501	0.9512
333.15 K, w1 = 0.25	995.91	1.36175	1.145
338.15 K, w1 = 0.05	983.349	1.33363	0.5507
338.15 K, w1 = 0.1	985.762	1.34037	0.6341
338.15 K, w1 = 0.15	988.199	1.34702	0.7693
338.15 K, w1 = 0.2	990.404	1.35377	0.8643
338.15 K, w1 = 0.25	992.735	1.36051	1.032
343.15 K, w1 = 0.05	980.387	1.33224	0.5267
343.15 K, w1 = 0.1	982.81	1.33899	0.6006
343.15 K, w1 = 0.15	985.138	1.34583	0.725
343.15 K, w1 = 0.2	987.241	1.35253	0.8146
343.15 K, w1 = 0.25	989.434	1.35922	0.9579
